Values quoted from earlier work in patent US20060241549A1, “Apparatus and method for precise ozone/oxygen delivery applied to the treatment of dermatological conditions, including gas gangrene, and related disorders” (priority 2005, published 2006).

Conditions: as a gas, at room temperature

Q: With `O=[O+][O-]` [ozone, Ozone] as the compound, how does the half-life read?
A: approximately 50 minutes
